Assay results as given in PubChem BioAssay (NCI).
“And” between values parts separate entries of the source, which are not always exact repeats. Equal entries are not always repeated.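 1) Cells in 96-well plates. 2) Compound, 48 h, 5 concentrations. 3) Linear interpolation between surrounding doses. 4) Unreached endpoint = highest concentration. The concentration for 50% growth inhibition is given as GI50. TGI is the concentration that stops growth completely.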

Assays:
Assay in all cases: DTP human tumour cell line panel, 48 h
HOP-92 NSCLC = test system: HOP-92 NSCLC
EKVX NSCLC = test system: EKVX NSCLC
UO-31 renal = test system: UO-31 renal
UACC-257 melanoma = test system: UACC-257 melanoma
786-0 renal = test system: 786-0 renal
UACC-62 melanoma = test system: UACC-62 melanoma
TK-10 renal = test system: TK-10 renal
NCI-H226 lung = test system: NCI-H226 lung
HS 578T breast = test system: HS 578T breast
ACHN renal = test system: ACHN renal
SK-MEL-2 melanoma = test system: SK-MEL-2 melanoma
OVCAR-3 ovarian = test system: OVCAR-3 ovarian
HCT-15 colon = test system: HCT-15 colon
K-562 leukemia = test system: K-562 leukemia
SK-MEL-28 melanoma = test system: SK-MEL-28 melanoma
OVCAR-4 ovarian = test system: OVCAR-4 ovarian
T-47D breast = test system: T-47D breast
HL-60(TB) leukemia = test system: HL-60(TB) leukemia
SK-OV-3 ovarian = test system: SK-OV-3 ovarian
MOLT-4 leukemia = test system: MOLT-4 leukemia
KM12 colon = test system: KM12 colon
NCI/ADR-RES ovarian = test system: NCI/ADR-RES ovarian
SF-268 CNS = test system: SF-268 CNS
OVCAR-8 ovarian = test system: OVCAR-8 ovarian
SNB-19 CNS = test system: SNB-19 CNS
IGROV1 ovarian = test system: IGROV1 ovarian
SW-620 colon = test system: SW-620 colon
RXF 393 renal = test system: RXF 393 renal
NCI-H23 lung = test system: NCI-H23 lung
A498 renal = test system: A498 renal
SF-295 CNS = test system: SF-295 CNS
M14 melanoma = test system: M14 melanoma
SN12C renal = test system: SN12C renal
MDA-N = test system: MDA-N
RPMI-8226 leukemia = test system: RPMI-8226 leukemia
A549 NSCLC = test system: A549 NSCLC
SNB-75 CNS = test system: SNB-75 CNS
HCC-2998 colon = test system: HCC-2998 colon
HCT-116 colon = test system: HCT-116 colon
MCF7 breast = test system: MCF7 breast
HT29 colon = test system: HT29 colon
U251 CNS = test system: U251 CNS
SK-MEL-5 melanoma = test system: SK-MEL-5 melanoma
DU-145 prostate = test system: DU-145 prostate
COLO 205 colon = test system: COLO 205 colon
OVCAR-5 ovarian = test system: OVCAR-5 ovarian
NCI-H460 lung = test system: NCI-H460 lung
BT-549 breast = test system: BT-549 breast
MDA-MB-231 breast = test system: MDA-MB-231 breast
MDA-MB-435 = test system: MDA-MB-435
HOP-62 NSCLC = test system: HOP-62 NSCLC
SF-539 CNS = test system: SF-539 CNS
MALME-3M melanoma = test system: MALME-3M melanoma
CAKI-1 renal = test system: CAKI-1 renal
PC-3 prostate = test system: PC-3 prostate
NCI-H522 lung = test system: NCI-H522 lung
CCRF-CEM leukemia = test system: CCRF-CEM leukemia
LOX IMVI melanoma = test system: LOX IMVI melanoma

SMILES: COc1ccccc1N1C(=O)CSC1c1c[nH]c2ccccc12 (stereo not given)
- TGI (HOP-92 NSCLC): > 100000 nM
- TGI (EKVX NSCLC): > 100000 nM
- TGI (UO-31 renal): > 100000 nM
- TGI (UACC-257 melanoma): > 100000 nM
- TGI (786-0 renal): > 100000 nM
- TGI (UACC-62 melanoma): > 100000 nM
- TGI (TK-10 renal): > 100000 nM
- TGI (NCI-H226 lung): > 100000 nM
- TGI (HS 578T breast): > 100000 nM
- TGI (ACHN renal): > 100000 nM
- TGI (SK-MEL-2 melanoma): > 100000 nM
- TGI (OVCAR-3 ovarian): > 100000 nM
- TGI (HCT-15 colon): > 100000 nM
- TGI (K-562 leukemia): > 100000 nM
- TGI (SK-MEL-28 melanoma): > 100000 nM
- TGI (OVCAR-4 ovarian): > 100000 nM
- TGI (T-47D breast): > 100000 nM
- TGI (HL-60(TB) leukemia): > 100000 nM
- TGI (SK-OV-3 ovarian): > 100000 nM
- TGI (MOLT-4 leukemia): > 100000 nM
- TGI (KM12 colon): > 100000 nM
- TGI (NCI/ADR-RES ovarian): > 100000 nM
- TGI (SF-268 CNS): > 100000 nM
- TGI (OVCAR-8 ovarian): > 100000 nM
- TGI (SNB-19 CNS): > 100000 nM
- TGI (IGROV1 ovarian): > 100000 nM
- TGI (SW-620 colon): > 100000 nM
- TGI (RXF 393 renal): > 100000 nM
- TGI (NCI-H23 lung): > 100000 nM
- TGI (A498 renal): > 100000 nM
- TGI (SF-295 CNS): > 100000 nM
- TGI (M14 melanoma): > 100000 nM
- TGI (SN12C renal): > 100000 nM
- TGI (MDA-N): > 100000 nM
- TGI (RPMI-8226 leukemia): > 100000 nM
- TGI (A549 NSCLC): > 100000 nM
- TGI (SNB-75 CNS): > 100000 nM
- TGI (HCC-2998 colon): > 100000 nM
- TGI (HCT-116 colon): > 100000 nM
- TGI (MCF7 breast): > 100000 nM
- TGI (HT29 colon): > 100000 nM
- TGI (U251 CNS): > 100000 nM
- TGI (SK-MEL-5 melanoma): > 100000 nM
- TGI (DU-145 prostate): > 100000 nM
- TGI (COLO 205 colon): > 100000 nM
- TGI (OVCAR-5 ovarian): > 100000 nM
- TGI (NCI-H460 lung): > 100000 nM
- TGI (BT-549 breast): > 100000 nM
- TGI (MDA-MB-231 breast): > 100000 nM
- TGI (MDA-MB-435): > 100000 nM
- TGI (HOP-62 NSCLC): > 100000 nM
- TGI (SF-539 CNS): > 100000 nM

SMILES: COc1cccc2c1C(=O)c1c(O)c3c(c(O)c1C2=O)C[C@@](O)(C(=O)CO)C[C@@H]3OC1CC2C(OCN3CN2COC2C(C)OC(O[C@H]4C[C@](O)(C(=O)CO)Cc5c(O)c6c(c(O)c54)C(=O)c4c(OC)cccc4C6=O)CC23)C(C)O1 (stereo not given in full)
- GI50 (MALME-3M melanoma): 15.9 nM
- TGI (MALME-3M melanoma): 197 nM and 80.9 nM
- GI50 (HOP-92 NSCLC): 15.3 nM and 15.9 nM
- TGI (HOP-92 NSCLC): 381 nM and 263 nM and 506 nM
- GI50 (EKVX NSCLC): 85.5 nM and 19.9 nM
- TGI (EKVX NSCLC): 616 nM and 72 nM
- GI50 (CAKI-1 renal): 17.5 nM
- GI50 (UACC-257 melanoma): 24.4 nM
- TGI (UACC-257 melanoma): 198 nM and 381 nM and 136 nM
- GI50 (786-0 renal): 7.92 nM
- GI50 (UACC-62 melanoma): 5.01 nM
- GI50 (TK-10 renal): 232 nM
- GI50 (NCI-H226 lung): 35.7 nM and 10.2 nM
- GI50 (HS 578T breast): 32.1 nM
- GI50 (ACHN renal): 8.2 nM
- TGI (ACHN renal): 673 nM
- GI50 (SK-MEL-2 melanoma): 23 nM
- TGI (SK-MEL-2 melanoma): 112 nM and 67 nM
- GI50 (PC-3 prostate): 50.1 nM
- TGI (PC-3 prostate): 935 nM and 890 nM
- GI50 (OVCAR-3 ovarian): 46.7 nM and 15.4 nM
- GI50 (NCI-H522 lung): 6.8 nM
- TGI (NCI-H522 lung): 160 nM and 53.8 nM
- GI50 (HCT-15 colon): 118 nM and 51.7 nM
- GI50 (SK-MEL-28 melanoma): 49.3 nM
- TGI (SK-MEL-28 melanoma): 574 nM and 294 nM
- GI50 (OVCAR-4 ovarian): 104 nM
- TGI (OVCAR-4 ovarian): 5220 nM
- GI50 (T-47D breast): 69.7 nM
- GI50 (HL-60(TB) leukemia): 2.67 nM
- GI50 (SK-OV-3 ovarian): 131 nM and 42.9 nM
- TGI (SK-OV-3 ovarian): 25000 nM and 4710 nM
- TGI (MOLT-4 leukemia): 6.58 nM
- GI50 (KM12 colon): 46 nM and 17.9 nM
- TGI (KM12 colon): 2640 nM and 294 nM
- GI50 (NCI/ADR-RES ovarian): 325 nM and 58.6 nM
- TGI (NCI/ADR-RES ovarian): 25000 nM and 8210 nM
- GI50 (SF-268 CNS): 6.35 nM and 12.2 nM
- GI50 (OVCAR-8 ovarian): 17.6 nM
- TGI (OVCAR-8 ovarian): 4220 nM and 1270 nM
- GI50 (SNB-19 CNS): 15.2 nM
- TGI (SNB-19 CNS): 3200 nM
- GI50 (IGROV1 ovarian): 17.6 nM
- GI50 (SW-620 colon): 10.4 nM
- GI50 (RXF 393 renal): 14.8 nM
- TGI (RXF 393 renal): 64.1 nM and 148 nM
- GI50 (NCI-H23 lung): 11.6 nM
- TGI (NCI-H23 lung): 209 nM and 108 nM and 21.7 nM
- GI50 (CCRF-CEM leukemia): 3.01 nM
- GI50 (A498 renal): 3.82 nM
- GI50 (SF-295 CNS): 31.2 nM
- TGI (SF-295 CNS): 3450 nM and 1350 nM
- GI50 (M14 melanoma): 50.5 nM
- TGI (M14 melanoma): 332 nM and 381 nM
- GI50 (SN12C renal): 12.1 nM
- TGI (SN12C renal): 96.6 nM and 134 nM and 35.9 nM
- GI50 (MDA-N): 52.2 nM and 21 nM
- TGI (MDA-N): 229 nM and 272 nM and 131 nM
- GI50 (RPMI-8226 leukemia): 4.87 nM
- TGI (RPMI-8226 leukemia): 11.6 nM
- GI50 (A549 NSCLC): 12.8 nM
- TGI (A549 NSCLC): 4630 nM
- GI50 (SNB-75 CNS): 7.56 nM
- TGI (SNB-75 CNS): 66.3 nM and 34.2 nM
- GI50 (HCC-2998 colon): 75 nM and 23.9 nM
- TGI (HCC-2998 colon): 277 nM and 500 nM and 104 nM
- GI50 (HCT-116 colon): 16.6 nM
- TGI (HCT-116 colon): 537 nM and 85.6 nM
- GI50 (HT29 colon): 19.9 nM
- TGI (HT29 colon): 148 nM
- GI50 (U251 CNS): 7.72 nM
- TGI (U251 CNS): 710 nM and 2600 nM
- GI50 (SK-MEL-5 melanoma): 44.7 nM
- TGI (SK-MEL-5 melanoma): 236 nM and 263 nM
- GI50 (DU-145 prostate): 11.9 nM
- TGI (LOX IMVI melanoma): 204 nM and 28.7 nM
- GI50 (COLO 205 colon): 12.7 nM
- TGI (COLO 205 colon): 473 nM and 312 nM
- GI50 (OVCAR-5 ovarian): 88.6 nM and 20.2 nM
- GI50 (BT-549 breast): 117 nM and 26.2 nM
- TGI (BT-549 breast): 734 nM and 1320 nM and 210 nM
- GI50 (MDA-MB-231 breast): 48.2 nM
- TGI (MDA-MB-231 breast): 705 nM and 893 nM
- GI50 (MDA-MB-435): 64.9 nM and 26.7 nM
- TGI (MDA-MB-435): 374 nM and 352 nM and 133 nM
- GI50 (HOP-62 NSCLC): 21.8 nM
- TGI (HOP-62 NSCLC): 419 nM and 2770 nM and 1230 nM
- GI50 (SF-539 CNS): 5.53 nM
